Source: patent US12564636B2, “Pnictogen-containing heterocyclic compounds and their use” (University of Rhode Island Board of Trustees, priority 2022, dated 2026)

Columns and labels:
Type in all cases: physicochemical
[1] = Second order reaction rate constant of CAP compound with GSH (UV-Vis kinetics)
Protocol: (§1) In a typical experiment, an aliquot of the stock solution of CAP1-a in water was added to nucleophile in PIPES buffer or water. The progress of the reaction was monitored by UV-Vis spectrometer at suitable wavelength. The pseudo first order reaction rate constant was determined by plotting the ln value of the concentration of CAP1-a against the reaction time. The pseudo first order reaction rate constant thus obtained was plotted against the concentration of the nucleophile. The slope of this linear correlation is the second order reaction rate constant. CAP1-a was reacted separately with GSH, cysteine, N-acetylcysteine, and phenol.
Following the study above, compounds CAP1-F, CAP2, and CAP4 each were reacted with either GSH or phenol in water or 50 mM PIPES at pH 7.
In another study, compounds CAP1-b, CAP1-F, CAP2, CAP3, CAP4, and CAP5 each were reacted with either GSH in a 50 mM PIPES and 150 mM KCl aqueous solution at pH 7 and 25° C. […] The reaction between CAP5 and GSH has a k2 as high as 3.2×10^5 M^−1·S^−1, 7×10^9 folds faster than its reaction with water under the same conditions. […] S^−1.

[2] = Stability in D2O observed by 1H NMR; settings: r.t.
Source text: 1H NMR (400 MHz, D2O) δ 8.08−7.98 (m, 2H), δ 7.92−7.85 (m, 2H), 4.41 (s, 6H), 3.75 (s, 3H).

[3] = Second order reaction rate constant of CAP compound with cysteine (UV-Vis kinetics); settings: similar reaction conditions (25° C., pH 7, 50 mM PIPES)
Protocol: as §1

[4] = Reaction of CAP compound with water (hydrolysis rate, stability in water)
Protocol: as §1
On the other hand, the reaction between CAP4 and water is very slow, showing a k2 of only 4.8−10^−6 M^−1·S^−1 at 25° C. and pH 7 in 50 mM PIPES.

[5] = 50 mM PIPES and 150 mM KCl aqueous solution, pH 7, 25° C.

SMILES | second order reaction rate constant (k2), reaction with GSH [1, 5] | second order reaction rate constant (k2), reaction with GSH ([1]; 25° C., pH 7, 50 mM PIPES) | other results
C[n+]1ccccc1S(C)(=O)=O [CAP4, N-methyl-2-(methylsulfonyl)pyridinium tetrafluoroborate] | 1.2×10^5 M^−1·S^−1 | 5.3×10^4 M^−1·S^−1 | 
C[n+]1c(Cl)cccc1S(C)(=O)=O [CAP5, 2-Chloro-1-methyl-6-(methylsulfonyl)pyridin-1-ium tetrafluoroborate] | 3.2×10^5 M^−1·S^−1 |  | 
Cn1c(S(C)(=O)=O)[n+](C)c2ccccc21 [CAP23, 1,3-dimethyl-2-(methylsulfonyl)-1H-benzo[d]imidazol-3-ium tetrafluoroborate] |  |  | stability in D2O [2]: moderate stability; time after which the compound is completely hydrolyzed in D2O [2]: 12 h
C[n+]1ccccc1F.[I-] [CAP1-a, N-methyl-2-fluoropyridinium iodide] |  | 1.2×10^2 M^−1·S^−1 | second order reaction rate constant (k2), reaction with cysteine [3]: 2.8×10^2 M^−1·S^−1; second order reaction rate constant (k2), reaction with water ([4]; CAP1-a and water): 4.5×10^−6 M^−1 S^−1; stability in water (in words) ([4]; inferred from slow reaction with water): high stability
C[n+]1ccccc1F [CAP1-b, N-methyl-2-fluoropyridinium tetrafluoroborate] | 1.2×10^2 M^−1·S^−1 |  | 
C[n+]1ccc(S(C)(=O)=O)cc1 [CAP3, N-Methyl-4-(methylsulfonyl)pyridinium tetrafluoroborate] | 9.8×10^3 M^−1·S^−1 |  | 
